# Reference: patent US5618675A, “Methods and compositions for detecting lipopolysaccharides using CAP18 fragments” (Panorama Research, Inc., dated 1997)
# Like-named read-outs stand apart in the source and are kept apart here.
# How the values were obtained:
# E. coli 0111:B4 LPS = experiment: Inhibition of RNIP-mediated hemagglutination by LPS; assay type: binding; settings: #36-1 at 16 μg/ml, RNIP (#197) at 25 μg/ml preincubated with LPS 30 minutes
# Experimental: (§1) For hemagglutination assays, erythrocytes were sensitized with LPS as follows. One ml of 1% erythrocyte suspension (human 0 type, C3H/HeN mouse or sheep) was mixed with 0.2 ml of LPS solution and incubated at 37° C. for 30 min, followed by washing with phosphate buffered saline (PBS), and then the concentration of suspension was adjusted to 1.0%. In the case of S-LPS, the solution was heated at 100° C. for 1 hour before sensitization of erythrocytes. […] Activity of CAP was expressed as a minimum agglutinating concentration (MAC) of CAP. According to the method of Kirikae et al. (1986) Microbiol. Immunol. 30:269-274, 50 μl of 2-fold serial dilution of Re-LPS was added to 50 μl of 1.0% rabbit erythrocyte suspension, and incubated at 37° C. for 3, hour. Minimum agglutinating concentration of Re-LPS was expressed as 1 HA unit.
# (§2) Another series of experiments was performed to determine if the #36-1 and #197 (RNIP) peptides were capable of binding to LPS from various species of Gram-negative bacteria. For these experiments, sheep red blood cells were sensitized with Salmonella minnesota Re-LPS. Peptides #36-1 and #197 (RNIP) were preincubated with various preparations of LPS. Both peptides bind to a diverse group of lipopolysaccharides.
# (§3) °Peptide #361 (16 μg/ml) and RNIP (#197) (25 μg/ml) were
# (§4) preincubated with each LPS preparation at 370 for 30 minutes, and each
# (§5) reaction mixture was added to sheep erythrocytes sensitized with RELPS.
# E. coli 0127:B8 LPS = experiment: as above; assay type: binding; settings: #36-1 at 16 μg/ml, RNIP (#197) at 25 μg/ml preincubated with LPS 30 minutes
# Experimental: as §1, §2, §3, §4, §5
# E. coli 055:B5 LPS = experiment: as above; assay type: binding; settings: #36-1 at 16 μg/ml, RNIP (#197) at 25 μg/ml preincubated with LPS 30 minutes
# Experimental: as §1, §2, §3, §4, §5
# E. coli J5 LPS = experiment: as above; assay type: binding; settings: #36-1 at 16 μg/ml, RNIP (#197) at 25 μg/ml preincubated with LPS 30 minutes
# Experimental: as §1, §2, §3, §4, §5
# [1] = tested on: Klebsiella pneumoniae LPS; experiment: as above; assay type: binding; settings: #36-1 at 16 μg/ml, RNIP (#197) at 25 μg/ml preincubated with LPS 30 minutes
# Experimental: as §1, §2, §3, §4, §5
# [2] = tested on: Pseudomonas aeruginosa F-D Type I LPS; experiment: as above; assay type: binding; settings: #36-1 at 16 μg/ml, RNIP (#197) at 25 μg/ml preincubated with LPS 30 minutes
# Experimental: as §1, §2, §3, §4, §5
# [3] = tested on: Salmonella minnesota R595 LPS; experiment: as above; assay type: binding; settings: #36-1 at 16 μg/ml, RNIP (#197) at 25 μg/ml preincubated with LPS 30 minutes
# Experimental: as §1, §2, §3, §4, §5
# [4] = tested on: two strains of Mycobacterium avium; experiment: Antimicrobial activity; assay type: cell-based; settings: range 0-20 μg/ml
# [5] = tested on: thioglycolate-stimulated murine peritoneal macrophages; experiment: LPS-induced tissue factor generation by macrophages; assay type: cell-based; settings: for inhibition of LPS induced tissue factor: peptide 1 μg/ml, 6 hr, FIG. 12
# Experimental: […] Cells were cultured for 6 hours prior to assay of tissue factor by clotting assay.
# […] Production of tissue factor after 6 hr. was measured by clotting assay. […] In the absence of LPS no tissue factor is synthesized by these cells.
# Human plasma = experiment: Prothrombin time (PT); assay type: biochemical; settings: for inhibition of prothrombin time (PT), words: FIG. 14A
# Experimental: (§6) Clotting method: Human plasma (Ortho plasma control, Ortho Diagnostic Co.). ATPP reagent (Organotechnika, Tokyo, Japan). Standard tissue factor, rabbit brain thromboplastin (Simplastin, ONO Pharmaceutical, Tokyo, Japan). Purified human factor VII, factor X, factor Xa (Sigma Chemical Co., St. Louis, Mo.). Russell Viper venom (RVV) and Echis carinatus venom (ECV, Sigma Co.).
# Instrumentation: Clotting assays were carried out using a Fibrometer (BioQuest Division, Becton Dickinson; Cokeysville, […]., USA).
# Human plasma (100 μl) was incubated with 100 μl of each peptide at 37° C. for 3 min., then 100 μl of tissue factor (250 μg/ml) CaCl2 was added and clotting time was measured.
# factor X = target: T1, factor X (Homo sapiens, UniProt P00742); experiment: Factor X activation by tissue factor and factor VII, synthetic substrate S-2222; assay type: biochemical; settings: FIG. 16B
# T1 construct: purchased Sigma Chemical Co., St. Louis, Mo
# Description: as §6
# Synthetic chromogenic substrate method: Substrate for factor Xa, S2222 (Kabi, Bz-Ile-Glu-Arg-pNA) was used. Substrate for factor II (prothrombin), Boc-Val-Pro-Arg-pNA (Sigma Chemical Co.) was used.
# A reaction mixture of factor VII (1 unit/ml, 200 μl), factor X (1 unit/ml, 200 μl), tissue factor (2.5 mg/ml, 50 μl), 25 mM-CaCl2(50 μl) and 50 μl of several concentration of peptide was incubated at 37° C. for 10 min. To 200 μl of the reaction mixture, 60 μl of 4 mM S-2222, a synthetic substrate for factor Xa, and 340 μl of Tris-HCl buffer, pH 8.2, was added and further incubated for 15 min. The reaction was stopped by adding 60 μl of 50% acetic acid, and OD for p-nitroaniline was read at 405 nm.
# Pseudomonas aeruginosa [6] = experiment: Antibacterial CFU assay; settings: for IC50: read-out: anti-bacterial IC50 (CFU)
# E. coli (HB101) = experiment: Bacterial proliferation, 3H-thymidine incorporation; assay type: cell-based
# Experimental: (§7) Bacteria were grown in trypticase broth overnight.
# (§8) To corroborate the anti-bacterial activity shown in the CFU assays, inhibition of proliferation of bacteria was tested directly using a ^3 H-thymidine incorporation assay. […] In summary although there is some strain to strain variation in the IC50, all of the Gram-negativestrains tested in two different types of assays were sensitive to these anti-microbial peptides.
# Klebsiella pneumoniae = experiment: as above; assay type: cell-based
# Experimental: as §7, §8
# Pseudomonas aeruginosa [7] = experiment: as above; assay type: cell-based
# Experimental: as §7, §8
# Pseudomonas apacia = experiment: as above; assay type: cell-based
# Experimental: as §7, §8
# [8] = tested on: Staphylococcus aureus, coagulase positive; experiment: as above; assay type: cell-based
# Experimental: as §7, §8
# Streptococcus pyogenes = experiment: as above; assay type: cell-based
# Experimental: as §7, §8
# [9] = RNIP 6 μg/ml (so in the source)
# T1 sequence (P00742 41-179 limits assumed): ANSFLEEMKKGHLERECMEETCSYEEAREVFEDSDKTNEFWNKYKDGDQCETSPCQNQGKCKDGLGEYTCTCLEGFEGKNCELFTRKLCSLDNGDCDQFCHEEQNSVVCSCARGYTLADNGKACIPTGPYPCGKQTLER
# T1 sequence (P00742 183-488 limits assumed): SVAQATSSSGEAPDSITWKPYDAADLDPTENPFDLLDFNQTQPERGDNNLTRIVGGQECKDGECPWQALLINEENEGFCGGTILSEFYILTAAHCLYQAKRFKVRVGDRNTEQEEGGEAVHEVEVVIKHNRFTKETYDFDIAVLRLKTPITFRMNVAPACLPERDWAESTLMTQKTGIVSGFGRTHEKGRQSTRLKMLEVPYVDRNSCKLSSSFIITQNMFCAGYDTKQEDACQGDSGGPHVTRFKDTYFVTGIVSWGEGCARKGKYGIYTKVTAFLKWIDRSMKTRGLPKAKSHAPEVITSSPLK
substance,measurement,setting,value
"36-1: synthetic rabbit RNIP-derived fragment, amino acids 135-166 of SEQ ID NO:4 (GLRKRLRKFRNKIKEKLKKIGQKIQGLLPKLA)",MIC (minimal inhibitory concentration of LPS),E. coli 0111:B4 LPS,15.6 µg/mL
same,MIC (minimal inhibitory concentration of LPS),E. coli 0127:B8 LPS,15.6 µg/mL
same,MIC (minimal inhibitory concentration of LPS),E. coli 055:B5 LPS,15.6 µg/mL
same,MIC (minimal inhibitory concentration of LPS),E. coli J5 LPS,7.8 µg/mL
same,MIC (minimal inhibitory concentration of LPS),[1],31.3 µg/mL
same,MIC (minimal inhibitory concentration of LPS),[2],3.9 µg/mL
same,MIC (minimal inhibitory concentration of LPS),[3],15.6 µg/mL
same,activity versus two strains of Mycobacterium avium,[4],inactive
same,inhibition of LPS induced tissue factor,[5],inhibition
same,"IC50, Prothrombin time",Human plasma,2.0 µg/mL
same,"inhibition of prothrombin time (PT), words",Human plasma,inhibited
same,"IC50, factor X activated by tissue factor and purified factor VII",factor X,0.6 to 0.7 µg/mL
same,anti-bacterial IC50 (CFU),Pseudomonas aeruginosa [6],< 0.25 µg/mL
same,IC50,Pseudomonas aeruginosa [6],< 50 nM
"RNIP: reactive nitrogen inhibitory protein, amino acids 135-171 of SEQ ID NO:4 (rabbit CAP18 C-terminus); purified from granulocytes or synthetic (#197) (GLRKRLRKFRNKIKEKLKKIGQKIQGLLPKLAPRTDY)",MIC (minimal inhibitory concentration of LPS),E. coli 0111:B4 LPS,31.3 µg/mL
same,MIC (minimal inhibitory concentration of LPS),E. coli 0127:B8 LPS,62.5 µg/mL
same,MIC (minimal inhibitory concentration of LPS),E. coli 055:B5 LPS,62.5 µg/mL
same,MIC (minimal inhibitory concentration of LPS),E. coli J5 LPS,15.6 µg/mL
same,MIC (minimal inhibitory concentration of LPS),[1],62.5 µg/mL
same,MIC (minimal inhibitory concentration of LPS),[2],15.6 µg/mL
same,MIC (minimal inhibitory concentration of LPS),[3],62.5 µg/mL
same,activity versus two strains of Mycobacterium avium,[4],inactive
same,Percent inhibition of proliferation,E. coli (HB101); RNIP 1.25 μg/ml,88%
same,Percent inhibition of proliferation,E. coli (HB101); RNIP 2.5 μg/ml,99%
same,Inhibition (%) of proliferation,"E. coli (HB101); RNIP 2.5 μg/ml, FCS 0 %",94 ± 10.3%
same,Inhibition (%) of proliferation,"E. coli (HB101); RNIP 2.5 μg/ml, FCS 1 %",91 ± 10.9%
same,Inhibition (%) of proliferation,"E. coli (HB101); RNIP 2.5 μg/ml, FCS 5 %",87 ± 3.1%
same,Inhibition (%) of proliferation,"E. coli (HB101); RNIP 2.5 μg/ml, FCS 10 %",78 ± 5.5%
same,Percent inhibition of proliferation,E. coli (HB101); RNIP 5.0 μg/ml,99%
same,Percent inhibition of proliferation,E. coli (HB101); [9],81%
same,Percent inhibition of proliferation,Klebsiella pneumoniae; RNIP 1.25 μg/ml,14%
same,Percent inhibition of proliferation,Klebsiella pneumoniae; RNIP 2.5 μg/ml,17%
same,Percent inhibition of proliferation,Klebsiella pneumoniae; RNIP 5.0 μg/ml,60%
same,Percent inhibition of proliferation,Klebsiella pneumoniae; [9],4%
same,Percent inhibition of proliferation,Pseudomonas aeruginosa [7]; RNIP 1.25 μg/ml,82%
same,Percent inhibition of proliferation,Pseudomonas aeruginosa [7]; RNIP 2.5 μg/ml,96%
same,Percent inhibition of proliferation,Pseudomonas aeruginosa [7]; RNIP 5.0 μg/ml,99%
same,Percent inhibition of proliferation,Pseudomonas aeruginosa [7]; [9],75%
same,Percent inhibition of proliferation,Pseudomonas apacia; RNIP 1.25 μg/ml,80%
same,Percent inhibition of proliferation,Pseudomonas apacia; RNIP 2.5 μg/ml,99%
same,Percent inhibition of proliferation,Pseudomonas apacia; RNIP 5.0 μg/ml,99%
same,Percent inhibition of proliferation,Pseudomonas apacia; [9],81%
same,Percent inhibition of proliferation,[8]; RNIP 1.25 μg/ml,57%
same,Percent inhibition of proliferation,[8]; RNIP 2.5 μg/ml,72%
same,Percent inhibition of proliferation,[8]; RNIP 5.0 μg/ml,83%
same,Percent inhibition of proliferation,[8]; [9],23%
same,Percent inhibition of proliferation,Streptococcus pyogenes; RNIP 1.25 μg/ml,79%
same,Percent inhibition of proliferation,Streptococcus pyogenes; RNIP 2.5 μg/ml,90%
same,Percent inhibition of proliferation,Streptococcus pyogenes; RNIP 5.0 μg/ml,96%
same,Percent inhibition of proliferation,Streptococcus pyogenes; [9],74%
same,inhibition of LPS-induced tissue factor generation when peptide added after LPS,"[5]; added as late as 3 hours after the LPS stimulus, FIG. 13",Significant inhibition
same,inhibition of LPS induced tissue factor,[5],inhibition
same,IC50,Human plasma,300 nM
same,"IC50, Prothrombin time",Human plasma,1.9 µg/mL
same,"inhibition of prothrombin time (PT), words",Human plasma,inhibited
same,"IC50, factor X activated by tissue factor and purified factor VII",factor X,0.3 to 0.6 µg/mL
same,IC50,"factor X; read-out: IC50, factor X activated by tissue factor and purified factor VII",40 to 100 nM
same,anti-bacterial IC50 (CFU),Pseudomonas aeruginosa [6]; FIG. 6E,< 250 µg/mL
same,IC50,Pseudomonas aeruginosa [6],< 40 nM
